{"source": "patent US20080255084A1", "about": "“Combination of Organic Compounds” (priority 2005, published 2008)", "key": {"[1]": {"molecular_target": "T1, dog renin (Canis lupus familiaris, UniProt Q6DYE7)", "T1 sequence (Q6DYE7 66-403)": "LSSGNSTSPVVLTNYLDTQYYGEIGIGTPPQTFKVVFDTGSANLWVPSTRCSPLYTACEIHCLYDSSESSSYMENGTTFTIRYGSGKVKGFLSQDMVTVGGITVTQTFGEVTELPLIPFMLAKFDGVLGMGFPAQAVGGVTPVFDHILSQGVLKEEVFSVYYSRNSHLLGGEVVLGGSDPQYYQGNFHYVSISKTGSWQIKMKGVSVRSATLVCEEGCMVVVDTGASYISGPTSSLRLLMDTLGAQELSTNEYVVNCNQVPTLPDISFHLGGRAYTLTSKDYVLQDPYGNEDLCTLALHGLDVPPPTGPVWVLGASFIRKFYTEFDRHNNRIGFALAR", "assay": "renin inhibitory potency against dog renin", "format": "biochemical", "conditions": "compared with human renin"}, "[2]": {"tested_on": "mouse renin", "assay": "renin inhibitory potency against mouse renin", "format": "biochemical", "conditions": "compared with human renin"}, "[3]": {"molecular_target": "T2, rat renin (Rattus norvegicus, UniProt P08424)", "T2 sequence (P08424 65-402)": "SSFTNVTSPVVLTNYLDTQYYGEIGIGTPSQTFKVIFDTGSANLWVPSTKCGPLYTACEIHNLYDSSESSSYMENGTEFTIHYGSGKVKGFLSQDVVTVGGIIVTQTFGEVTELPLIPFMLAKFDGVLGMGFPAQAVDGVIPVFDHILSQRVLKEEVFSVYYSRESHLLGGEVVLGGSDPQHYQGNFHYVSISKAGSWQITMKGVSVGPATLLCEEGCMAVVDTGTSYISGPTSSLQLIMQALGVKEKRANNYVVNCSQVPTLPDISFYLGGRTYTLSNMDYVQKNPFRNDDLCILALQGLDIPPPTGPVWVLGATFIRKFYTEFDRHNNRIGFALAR", "assay": "renin inhibitory potency against rat renin", "format": "biochemical", "conditions": "loss of potency against rat renin"}, "[4]": {"conditions": "in vivo; cited from earlier work"}}}
{"molecule": "COCCCOc1cc(C[C@@H](C[C@H](N)[C@@H](O)C[C@H](C(=O)NCC(C)(C)C(N)=O)C(C)C)C(C)C)ccc1OC", "note": "[aliskiren, 2(S),4 (S),5(S),7(S)—N-(3-amino-2,2-dimethyl-3-oxopropyl)-2,7-di(1-methylethyl)-4-hydroxy-5-amino-8-[4-methoxy-3-(3-methoxy-propoxy)phenyl]-octanamide]", "values": [{"measurement": "potency against dog renin", "setting": "[1]", "value": "reasonable potency"}, {"measurement": "potency against mouse renin", "setting": "[2]", "value": "reasonable potency"}, {"measurement": "weaker as a rat renin inhibitor", "setting": "[3]", "value": "1-2 orders of magnitude"}]}
{"molecule": "CC1(C)O[C@@H]2[C@@H](CO[C@@]3(COS(N)(=O)=O)OC(C)(C)O[C@@H]23)O1", "note": "[Topiramate]", "values": [{"measurement": "effect on weight loss", "setting": "[4]", "value": "increase weight loss"}]}
{"molecule": "NS(=O)(=O)Cc1noc2ccccc12", "note": "[Zonisamide]", "values": [{"measurement": "effect on weight loss", "setting": "[4]", "value": "lead to weight loss"}]}
